{"source": "patent US4440778A", "about": "“Anti-inflammatory analgesic cataplasm and process for producing the same” (Kowa Co., Ltd., priority 1981, dated 1984)", "origin": "cited, not measured here", "key": {"[1]": {"details": "administered orally"}, "[2]": {"assay": "not given", "remark": "listed apart in the source"}, "[3]": {"details": "mixed with and suspended in base components, pH 7 or higher"}}, "data": [{"molecule": "COc1ccc2c(c1)c(CC(=O)O)c(C)n2C(=O)c1ccc(Cl)cc1", "note": "[indomethacin, Indomethacin]", "values": [{"measurement": "chemical stability when dissolved in an alkaline solution", "setting": "alkaline solution", "value": "chemically unstable and readily decomposable"}, {"measurement": "solubility in an alkaline solution", "setting": "alkaline solution", "value": "soluble in an alkaline solution"}, {"measurement": "stability in a pH range of 7 or higher", "setting": "[3]", "value": "less stable"}, {"measurement": "solubility in water", "setting": "water", "value": "insoluble in water"}, {"measurement": "adverse effects: central nervous system troubles", "setting": "[1]", "value": "central nervous system troubles such as frontal head ache, drowsiness, dizziness and mental disorders"}, {"measurement": "adverse effects: gastroenteric troubles", "setting": "[1]", "value": "gastroenteric troubles such as decreased appetite, nausea, vomiting, indigestion, diarrhoea and stomach ache"}, {"measurement": "absorbability through the skin in a pH range of 7 or higher", "setting": "[2]; [3]", "value": "less absorbable through the skin"}, {"measurement": "percutaneous absorption", "setting": "[2]; stratum corneum and basal cell layer act as barriers", "value": "not subject to percutaneous absorption"}]}]}
